Results on three compounds are retold here after US8865158B2, “Bacteriophages for reducing toxicity of bacteria” (priority 2012, dated 2014).

≈ marks a conversion by molar mass, not a printed value. Where two headings read alike, the source gives them in different places. Bounds are passed on as bounds.

Experiment [1] relates to E. coli K-12 nalidixic acid-resistant mutants, Nal1-8. Kind of experiment: MIC determination to nalidixic acid, resistant mutants. It is filed as cell-based. Conditions: Escherichia coli. How it is done:
Table 3 recites E. coli K-12 nalidixic acid-resistant mutants, Nal1-8, isolated on 50 μg/ml nalidixic acid. Substitutions in the GyrA protein are indicated, as well as the MIC to nalidixic acid.
(§1) Over twenty different overnight cultures of a total of ˜10^11 E. coli K-12 cells were inoculated on Luria-Bertani (LB)-agar plates containing 50 μg/ml streptomycin or 50 μg/ml nalidixic acid. Resistant mutants emerged, in both cases, at a median frequency of ˜1 in 10^9 CFU, and were picked from different cultures, to reduce the occurrence of sibling mutants. These bacteria were streaked on an agar plate containing the appropriate antibiotic. The rpsL or gyrA genes of resistant mutants emerging on the plate were PCR-amplified followed by DNA sequencing.
(§2) MIC determination was carried out by following the procedure described by Wiegand et al. (19). Briefly, bacterial cells were grown overnight at 32° C. in LB and diluted to 10^7-10^9 CFU/ml. The obtained suspension was serially diluted 10-fold for different spot concentrations, as indicated. Approximately 1 μl of bacterial suspension was then spotted onto selection plates containing different concentrations of either streptomycin or nalidixic acid along with the appropriate selection agent (chloramphenicol or tellurite), as indicated, using a 48-pin replicator. Plates were incubated overnight and photographed using MiniBis Pro (Bio-Imaging Systems). Photographs were digitally manipulated using GIMP2 software to adjust contrast. Liquid-based MIC determination assays were carried out by inoculating serial dilutions of an antibiotic in liquid LB broth with bacterial cultures (OD600 ˜0.05) in 96-well microtiter plates. Plates were incubated overnight at 32° C. and OD600 was then measured. The lowest antibiotic concentration at which the relative growth compared to the “no-drug” control was below 10% was determined as the MIC.

For a further experiment, the system named is pathogenic E. coli. Conditions: 36 pathogenic E. coli resistant to high levels of nalidixic acid; cited from earlier work.
The test system of experiment [2] is E. coli K-12 streptomycin-resistant mutants, Sm1-22. Kind of experiment: MIC determination to streptomycin, agar-plate assay, resistant mutants. The following applies: Escherichia coli. Type of experiment: cell-based. How it is done:
Table 2 recites the E. coli K-12 streptomycin-resistant mutants, Sm1-22, isolated on 50 μg/ml streptomycin. Substitutions in the RpsL protein are indicated, as well as the MIC to streptomycin.
as §1, §2
Minimum inhibitory concentration (MICs) to streptomycin were determined by agar-plate assay (19). In this assay, ˜10^4 cells are replica-plated on plates with different drug concentrations. The lowest concentration at which there is no visible colony-formation is defined as the MIC. The MICs throughout the study were also measured in a complementary liquid-determination assay, giving a similar readout (not shown). Two representatives of the most common streptomycin-resistant strains obtained above were taken for further study: strains Sm6 and Sm13, harboring mutations in rpsL leading to substitutions of R86S and K88R, respectively. […] These strains were transformed with the plasmid pRpsL-wt, encoding the wt rpsL, or a control plasmid, pRpsLΔ4, encoding a mock gene (a defective rpsL with a 4-bp deletion that disrupts the reading frame after amino acid 26 of the RpsL protein; see FIG. 1) under a modified early E. coli promoter from phage T7. Transformed cells were selected on agar plates supplemented with 35 μg/ml chloramphenicol, as the plasmid encodes chloramphenicol acetyl transferase, which confers chloramphenicol resistance. The MICs of the transformed strains to streptomycin were then determined.

In experiment [3] the test system is E. coli K-12 parental strain. Kind of experiment: MIC to streptomycin of the parental strain. It is filed as cell-based. The following applies: Escherichia coli. How it is done: MIC determination was carried out by following the procedure described by Wiegand et al. (19). Briefly, bacterial cells were grown overnight at 32° C. in LB and diluted to 10^7-10^9 CFU/ml. The obtained suspension was serially diluted 10-fold for different spot concentrations, as indicated. Approximately 1 μl of bacterial suspension was then spotted onto selection plates containing different concentrations of either streptomycin or nalidixic acid along with the appropriate selection agent (chloramphenicol or tellurite), as indicated, using a 48-pin replicator. Plates were incubated overnight and photographed using MiniBis Pro (Bio-Imaging Systems). […] Plates were incubated overnight at 32° C. and OD600 was then measured. […]
Minimum inhibitory concentration (MICs) to streptomycin were determined by agar-plate assay (19). […] The MICs throughout the study were also measured in a complementary liquid-determination assay, giving a similar readout (not shown). […] These strains were transformed with the plasmid pRpsL-wt, encoding the wt rpsL, or a control plasmid, pRpsLΔ4, encoding a mock gene (a defective rpsL with a 4-bp deletion that disrupts the reading frame after amino acid 26 of the RpsL protein; see FIG. 1) under a modified early E. coli promoter from phage T7. […] The MICs of the transformed strains to streptomycin were then determined.

The test system of a further experiment is E. coli. The following applies: cited from earlier work.

Usually MIC stands for the least concentration at which growth counts as inhibited. `CCn1cc(C(=O)O)c(=O)c2ccc(C)nc21` [nalidixic acid]: the MIC in experiment [1] (read-out: MIC to nalidixic acid, mutant Nal1, GyrA S83L) was no less than 50 µg/mL; in experiment [1] (read-out: MIC to nalidixic acid, mutant Nal2, GyrA S83L), no less than 50 µg/mL; in experiment [1] (read-out: MIC to nalidixic acid, mutant Nal3, GyrA S83L), no less than 50 µg/mL; in experiment [1] (read-out: MIC to nalidixic acid, mutant Nal4, GyrA D87G) it was 128 µg/mL (≈ 551 µM); in experiment [1] (read-out: MIC to nalidixic acid, mutant Nal5, GyrA D87G), 128 µg/mL (≈ 551 µM); in experiment [1] (read-out: MIC to nalidixic acid, mutant Nal6, GyrA D87G), 128 µg/mL (≈ 551 µM). The MIC in experiment [1] (read-out: MIC to nalidixic acid, mutant Nal7, GyrA D87G) is 128 µg/mL (≈ 551 µM); in experiment [1] (read-out: MIC to nalidixic acid, mutant Nal8, GyrA D87G), 128 µg/mL (≈ 551 µM). For the same compound, in the experiment on pathogenic E. coli, the “MIC of nalidixic acid” value was no less than 256 µg/mL.

For `[H]/N=C(/N)N[C@H]1[C@H](O)[C@@H](O)[C@H](O[C@@H]2O[C@@H](C)[C@](O)(C=O)[C@H]2O[C@@H]2O[C@@H](CO)[C@H](O)[C@@H](O)[C@@H]2NC)[C@@H](N/C(N)=N\[H])[C@@H]1O` [streptomycin], the MIC in experiment [2] (read-out: MIC to streptomycin, mutant Sm1, RpsL P42S) is no less than 50000 µg/mL; in experiment [2] (read-out: MIC to streptomycin, mutant Sm3, RpsL K43N), no less than 50000 µg/mL; in experiment [2] (read-out: MIC to streptomycin, mutant Sm4, RpsL R54S), no less than 50000 µg/mL; in experiment [2] (read-out: MIC to streptomycin, mutant Sm5, RpsL R86S), no less than 50000 µg/mL; in experiment [2] (read-out: MIC to streptomycin, mutant Sm6, RpsL R86S), 100000 µg/mL (≈ 172000 µM); in experiment [2] (read-out: MIC to streptomycin, mutant Sm7, RpsL R86S), no less than 50000 µg/mL. Further, the MIC in experiment [2] (read-out: MIC to streptomycin, mutant Sm8, RpsL R86S) is no less than 50000 µg/mL; in experiment [2] (read-out: MIC to streptomycin, mutant Sm9, RpsL R86S) it was no less than 50000 µg/mL; in experiment [2] (read-out: MIC to streptomycin, mutant Sm10, RpsL R86S), no less than 50000 µg/mL; in experiment [2] (read-out: MIC to streptomycin, mutant Sm11, RpsL K88E), no less than 50000 µg/mL; in experiment [2] (read-out: MIC to streptomycin, mutant Sm22, no substitution in RpsL), no less than 50000 µg/mL; in experiment [2] (read-out: MIC to streptomycin, resistant mutant Sm6 (R86S) without sensitizing construct), 100 µg/mL. Moreover, the MIC amounted to 200 µg/mL in experiment [2] (read-out: MIC to streptomycin, resistant mutant Sm13 (K88R) without sensitizing construct) and 1.56 µg/mL (≈ 2.68 µM) in experiment [3].

With `O=[Te]([O-])[O-].[K+].[K+]` [tellurite, potassium-tellurite (K2TeO3)], the values for the MIC of tellurite in the experiment on E. coli (E. coli either having or lacking the chromosomal tehAB genes) and in the experiment on E. coli (cells harboring an extrachromosomal tehAB with an active promoter) were 2 µg/mL and 128 µg/mL, respectively. Moreover, the “Increase of MIC of tellurite upon tehAB expression from an active promoter” value with E. coli (tehAB expressed from an active promoter (e.g. T7)) is given as 50-100 fold.
